Several values for one entry are separate records, joined by “and”; a condition that tells them apart may be missing. Equal values may be shown once. Entries after “also recorded” stand apart in the source; their conditions may differ. Where only a bound is given, the exact number is not on record here.

For data set [1] the following is noted: prior-art description; cited from earlier work.
Data set [2] has as its system male and female rats. The settings on record: rat, in vivo.
Data set [3] is described as follows: Flowability (carr index). It counts as physicochemical.
Data set [4] can be described thus: Thermal stability test at 60° C. (airtight container, 10 days, weighed regularly). It counts as physicochemical. To be noted: for Change of crystal form / X-ray powder diffraction pattern after deposit at 60° C.: 10 days.
In data set [5] the test system is rats. The experiment in a line: Carcinogenic test in rats within 24 months. The class given is in vivo. The settings on record: 24 months persistently treated.
Data set [6] is described as follows: Hygroscopicity at 40° C. by dynamic vapor sorption. The class given is physicochemical.
A short description of data set [7]: Toxic responses, overall comparison. The settings on record: in words.
Data set [8] can be described thus: Deposit at 40° C. and relative humidity 75% for 3 days. The settings on record: relative humidity 75%. The class given is physicochemical. Here is the method:
0.45 g of Omeprazole Sodium monohydrate, 20 mL of ethyl acetate and 10 mL of s-butanol were added to a crystallizer, and the mixture was stirred at a temperature of 35° C. and a speed of 200 r/min for 2 hours, followed by filtrating and drying to provide 0.42 g of Omeprazole Sodium semihydrate with a mole yield of 95.6% and a HPLC purity of 99.8%. The product had same X-ray powder diffraction pattern as FIG. 1, same solid Fourier transform infrared spectrum as FIG. 2, and DSC decomposition temperature of 227.5° C.

Data set [9] has as its system male and female rats. The experiment in a line: Reproductive toxicity test. To be noted: oral 138 mg/kg/day.
A short description of data set [10]: DSC analysis, thermal decomposition temperature. The class given is physicochemical. The settings on record: 10° C./min, 25˜300° C. Here is the method: The DSC data is obtained by analysis using a differential scanning calorimetry (DSC1/500, Mettler Toledo Corporation, Switzerland), and the analysis conditions are as follows: adding 10 mg of sample to a 40 μL Aluminum crucible, providing high-purity nitrogen as reaction gas and shield gas with a gas-flow rate of 50 mL/min and 20 mL/min, and raising the temperature at a rate of 10° C./min and a range of 25˜300° C.

Data set [11] is described as follows: Drug mutation test.
Data set [12] in a line: Toxic responses test, lethal dose in mice. The settings on record: mouse, in vivo.
Data set [13] has as its system stomach ECL cells. To be noted: rat, in vivo.
Data set [14] deals with dogs. To be noted: dog, in vivo.
Data set [15] is described as follows: Toxic responses test, intravenous lethal dose in rats. The settings on record: rat, in vivo, read-out: intravenous LD50 (median lethal dose).
Data set [16] deals with rats. To be noted: rat, in vivo, 140 mg/kg/day.
Setting [17] is: listed as Example 1, sodium salt.
Setting [18] is: listed as Example 2, sodium salt.
The mark [19] stands for this setting: listed as Example 3, sodium salt.

For the compound `COc1ccc2[nH]c([S+]([O-])Cc3ncc(C)c(OC)c3C)nc2c1` (stereo not drawn) [Omeprazole Sodium hydrate], in [1], the “stability (in words)” value was “poor stability”.

Regarding `COc1ccc2[n-]c([S+]([O-])Cc3ncc(C)c(OC)c3C)nc2c1.[Na+]` (stereo not drawn) [Omeprazole Sodium semihydrate], in [2], the “reproductive toxicity test result” value is reported as “negative”. Further, the carr index is given as 14.3% in data set [3] (setting [17]), 13.9% in data set [3] (setting [18]), 14.7% in [3] (setting [19]) and “less than 15%” in [3] (sodium salt). For the same compound, the Weight changing rate amounted to 0% in [4] (0 day); 1.1% in [4] (5 day); 2.4% in [4] (10 day, listed as Example 1, sodium salt); 2.5% in data set [4] (10 day, listed as Example 2, sodium salt); 2.4% in data set [4] (10 day, listed as Example 3, sodium salt); 0% in data set [6] (relative humidity 0%). Further, the Weight changing rate in data set [6] (relative humidity 5%) is on record as 0.001%; in [6] (relative humidity 10%), 0.004%; in [6] (relative humidity 15%), 0.01%; in data set [6] (relative humidity 20%) it was 0.02%; in data set [6] (relative humidity 25%) it was 0.02%; in data set [6] (relative humidity 30%) it was 0.03%. The Weight changing rate in data set [6] (relative humidity 35%) was found to be 0.03%; in data set [6] (relative humidity 40%), 0.03%; in [6] (relative humidity 45%), 0.14%; in [6] (relative humidity 50%) it was 0.17%; in [6] (relative humidity 55%) it was 0.28%; in data set [6] (relative humidity 60%), 0.37%. Moreover, the Weight changing rate in data set [6] (relative humidity 65%) was 0.45%; in data set [6] (relative humidity 70%), 0.53%; in [6] (relative humidity 75%), 0.69%; in data set [8], 0.68%. The Weight of sample is given as 9.5852 g in [4] (0 day), 9.4826 g in [4] (5 day) and 9.3790 g in [4] (10 day). For the same compound, the “Change of crystal form / X-ray powder diffraction pattern after deposit at 60° C.” value in data set [4] (setting [17]) was “without making any significant changes in the X-ray powder diffraction pattern”; in [4] (setting [18]), “without making any significant changes in the X-ray powder diffraction pattern”; in data set [4] (setting [19]), “without making any significant changes in the X-ray powder diffraction pattern”; in data set [4] (sodium salt), “does not make any significant change”. Also, the “carcinogenic test: gastric mucosa finding” value in [5] is listed as “enterochromaffin-like cell hyperplasia in gastric mucosa”. For the same compound, the “carcinogenic test: carcinogenesis / cancer metastasis” value in [5] (sodium salt) is reported as “cancer metastasis is not found; also recorded: carcinogenesis occurred without cancer metastasis”. The “hygroscopicity compared with Omeprazole Sodium monohydrate” value in data set [6] (in words) is “lower hygroscopicity”. Moreover, the “toxicity compared with existing Omeprazole Sodium or monohydrate” value in data set [7] is “improved toxicity”. Moreover, the “influence on reproductive performance” value in data set [9] is “no influence on reproductive performance”. Besides, the “thermal decomposition temperature (DSC decomposing exothermic peak)” value in data set [10] (setting [17]) was 227.5 °C; in [10] (setting [18]), 229.2 °C; in data set [10] (setting [19]) it was 229.5 °C; in data set [10] (sodium salt), 228.5±1 °C and 228.5 °C. Moreover, the “drug mutation test result” value in [11] is “negative”.

Turning to `COc1ccc2[nH]c([S+]([O-])Cc3ncc(C)c(OC)c3C)nc2c1` (stereo not drawn) [Omeprazole], the LD50 in data set [12] (mice, intravenous, read-out: Intravenous LD50) was 82.8 mg/kg; in [12] (oral, species not restated, follows mice, read-out: oral LD50), greater than 2000 mg/kg; in [15], 302 mg/kg. For the same compound, in data set [13], the “stomach ECL cell findings in long-term treatment” value was “cell increase and benign tumour were observed in stomach ECL cells”. Further, the “Intravenous LDLo (lowest published lethal dose)” value in [14] is 500 mg/kg. Moreover, the long-term toxicity findings result in data set [16] was “liver and kidney increased in weight without histologic changes”.
